The conditions of data set [1]: mass balance study in humans; cited from earlier work.
For data set [2] the following is noted: cited from earlier work.
For data set [3], the system named is post-menopausal women. Put plainly: Example 3 (15 mg, 20 mg E4 monohydrate or placebo): weekly frequency of moderate to severe VMS and responder proportions. Type of data set: in vivo, human. Here is the method: A further clinical study was designed to evaluate the effect of 15 or 20 mg estetrol (E4) monohydrate, or placebo on the severity and frequency of vasomotor symptoms (VMS) and the safety of E4 20 mg. The inclusion and exclusion criteria as described for Example 2 were maintained for the present Example (i.e. Example 3).
• 1. Mean change in weekly frequency of moderate to severe vasomotor symptoms (VMS) from Baseline to Week 4 (Efficacy Study Part) [Time Frame: Baseline and Week 4]: • The weekly frequency of moderate to severe VMS at Baseline and Week 4 is defined as the total number (sum) of all recorded moderate to severe VMS experienced during the last 7 consecutive days prior randomization for Baseline and at Week 4. Mean change=mean weekly frequency at Week 4-mean weekly frequency at Baseline. • 2. Mean change in weekly frequency of moderate to severe vasomotor symptoms (VMS) from Baseline to Week 12 (Efficacy Study Part) [Time Frame: Baseline and Week 12] • The weekly frequency of moderate to severe VMS at Baseline and Week 12 is defined as the total number (sum) of all recorded moderate to severe VMS experienced during the last 7 consecutive days prior randomization for Baseline and at Week 12. Mean change=mean weekly frequency at Week 12-mean weekly frequency at Baseline. • 3. […]

In the next data set the test system is healthy women. Put plainly: Example 2 section G: adverse events after single and 14-day multiple oral doses of Estetrol monohydrate/Drospirenone 15 mg/3 mg and 30 mg/6 mg. The note with it: single dose then once daily for 14 days. Type of data set: in vivo, human. How it is done:
The following treatments were administered to healthy women (between 15-50 years inclusive) according to the randomization code. • Placebo (n=16); • Group 15 mg: a single oral dose of 15 mg Estetrol monohydrate/3 mg Drospirenone (n=10) followed, after a washout of 14 days, by multiple oral doses of 15 mg Estetrol monohydrate/3 mg Drospirenone (n=10) once daily for 14 days; • Group 30 mg: a single oral dose of 30 mg Estetrol monohydrate/6 mg Drospirenone (n=10), followed, after a washout of 14 days, by multiple oral doses of 30 mg Estetrol monohydrate/6 mg Drospirenone (n=10) once daily for 14 days.
Adverse events were recorded from first admission until completion of the follow-up visit (between 37 to 42 days after first day of treatment).

Data set [4] concerns C-Terminal Telopeptide (CTX-1). Description: Example 2 section F: C-terminal telopeptide (CTX-1), marker of bone resorption, at 15 mg and 20 mg daily doses. Type of data set: in vivo, human. Here is the method: In order to better assess the potential for increasing the daily dose beyond the minimum effective dose of 15 mg estetrol monohydrate daily, a number of parameters were followed in a study where estetrol monohydrate was administered at the increased dose of 20 mg per day.
6. C-Terminal Telopeptide (CTX-1) (Ng/L)
CTX-1 is a specific marker of bone resorption.

Data set [5] relates to post-menopausal women. Put plainly: Example 2: adverse events (AEs, TEAEs) per treatment group. Type of data set: in vivo, human. The source says: This is confirmed by the following statistical analysis. Using a Poisson regression model with a random effect for the patient and treatment group as a covariate to model the count of TEAEs in the different treatment groups, it can be shown that there is no statistical difference between the treatment groups (p value of 0.099). Second, a chi-square test was used to assess if the prevalence of patients reporting TEAEs in each treatment group was similar. No statistical difference was found between the treatment groups (p value of 0.575).

[6] abbreviates: 15 mg Estetrol monohydrate/3 mg Drospirenone.
Setting [7] is: 30 mg Estetrol monohydrate/6 mg Drospirenone.

Read-outs that look alike come from different tables or passages of the source.

Consider `C[C@]12CC[C@@H]3c4ccc(O)cc4CC[C@H]3[C@@H]1[C@@H](O)[C@@H](O)[C@@H]2O` [E4, 1,3,5 (10)-estratrien-3,15alpha, 16alpha, 17beta-tetrol], for which the “contribution of hepatic elimination to the overall elimination” value in data set [1] is “approximately 20%”. Moreover, the “dose up to which well tolerated and safe” value in data set [2] (given as a single dose) is “up to 100 mg”; in data set [2] (given once daily for 28 days), “up to 40 mg”. In addition, the “frequency of moderate to severe VMS” value in the data set with post-menopausal women [3] (15 mg and 20 mg vs placebo, weeks 4 and 12 (FIG. 10)) is listed as “significantly decreased”. For the same compound, the “number of women with reduced VMS frequency (at least 50% or 75% reduction) vs placebo” value in the data set with post-menopausal women [3] (FIG. 11) is recorded as “higher number of women that experienced a reduced VMS frequency than placebo”.
As for `C[C@]12CC[C@@H]3c4ccc(O)cc4CC[C@H]3[C@@H]1[C@@H](O)[C@@H](O)[C@@H]2O` [E4 monohydrate, estetrol monohydrate], the “TEAEs by relationship to study drug, Related, subjects reporting one or more AE” value in the data set on healthy women (setting [6]) and with healthy women (setting [7]) was 50% each time. In addition, the figures for the “TEAEs by relationship to study drug, Total, subjects reporting one or more AE” value in the data set with healthy women (setting [6]) and in the data set with healthy women (setting [7]) were 80% and 70%, respectively. In addition, the “TEAEs by relationship to study drug, Unrelated, subjects reporting one or more AE” value with healthy women (setting [6]) and in the data set on healthy women (setting [7]) was 50% in each case. The “bone resorption (CTX-1)” value in data set [4] (15 mg daily dose) is given as “small decrease of bone resorption”; in data set [4] (20 mg daily dose, after 28 days of treatment, compared with 15 mg), “more pronounced”. Also, the “Count of Treatment Emergent AEs (TEAEs)” value was found to be 61 in the data set with post-menopausal women [5] (2.5 mg daily), 63 in the data set with post-menopausal women [5] (5 mg daily), 95 with post-menopausal women [5] (10 mg daily) and 82 with post-menopausal women [5] (15 mg daily). The “Percentage of patients with TEAE leading to Study Discontinuation” value in the data set on post-menopausal women [5] (2.5 mg daily) stood at 1.9; with post-menopausal women [5] (5 mg daily), 6.4; with post-menopausal women [5] (10 mg daily) it was 5.6; in the data set on post-menopausal women [5] (15 mg daily), 4.1. The “Percentage of patients with severe TEAE” value in the data set with post-menopausal women [5] (2.5 mg daily) is given as 7.7; in the data set with post-menopausal women [5] (5 mg daily), 10.6; in the data set on post-menopausal women [5] (10 mg daily), 7.4; in the data set on post-menopausal women [5] (15 mg daily), 6.1. Also, the results for the “average AEs per patient among patients who had AEs” value in the data set on post-menopausal women [5] (10 mg group) and with post-menopausal women [5] (15 mg group) were 3.2 AEs per patient and 2.6 AEs, respectively.

(Values after patent publication US20260207623A1, “USE OF ESTETROL IN HEPATICALLY IMPAIRED PATIENTS” (ESTETRA SRL, priority 2022, published 2026).)
